Assay results taken from US5166213A, “4-pyridyl substituted-1,3-dioxane compounds” (Imperial Chemical Industries PLC, priority 1988, dated 1992).

Tests used:
thromboxane receptor = target: T1, thromboxane receptor (Homo sapiens, UniProt P21731); test: test (b): blood platelet aggregation, antagonism of U46619 in citrated platelet-rich plasma; assay type: cell-based; settings: Example 2, unit inferred
T1 construct: aggregating human, citrated, platelet-rich plasma; from tissue; host or cells: human platelets (citrated platelet-rich plasma)
T1 sequence (P21731 1-343): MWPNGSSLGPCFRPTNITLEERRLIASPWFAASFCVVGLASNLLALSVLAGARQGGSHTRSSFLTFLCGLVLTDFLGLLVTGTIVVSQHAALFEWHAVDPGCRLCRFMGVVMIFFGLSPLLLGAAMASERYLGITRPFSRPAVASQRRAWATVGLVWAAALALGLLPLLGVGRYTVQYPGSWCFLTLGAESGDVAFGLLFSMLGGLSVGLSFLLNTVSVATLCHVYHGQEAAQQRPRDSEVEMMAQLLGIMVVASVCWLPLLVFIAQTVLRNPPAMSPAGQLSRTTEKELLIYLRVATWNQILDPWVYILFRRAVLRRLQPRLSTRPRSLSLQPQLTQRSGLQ
Source text: (b) a blood platelet aggregation test based on that described by Born (Nature, 1962, 194, 927-929) and involving:
(i) aggregating human, citrated, platelet-rich plasma by addition of the TXA2 mimetic agent U46619 so that a dose-response curve is generated;
(ii) generating a dose-response curve for U46619 stimulated platelet aggregation in the presence of increasing amounts of test compound (generally in the range 10^-5 M to 10^-10 M); and
(iii) calculating a KB value indicating potency of TXA2 antagonism for the test compound, averaged over several concentrations, from the calculated 50% response value for U46619 aggregation in the presence and absence of test compound; or […]

[1] = observable signs of toxicity in test (f), rats; assay type: in vivo, rat; settings: oral dose of 25 mg/kg
TXA2 synthase [2] = test: test (f): TXB2 production in blood samples from dosed rats; assay type: in vivo, rat; settings: oral dose of 25 mg/kg, up to 5 hours
Description: The samples treated with anti-coagulant are first incubated at 37° C. with collagen (at about 100 micro M), then mixed with the cyclooxygenase inhibitor indomethacin (at about 10^-3 M), centrifuged and the level of the TXA2 metabolite, TXB2, determined by a standard radioimmunoassay technique. By comparison of the amount of TXB2 present in the plasma from animals dosed with test compound with that in the plasma of a control group dosed with placebo, the TXA2 synthase inhibitory properties may be assessed.

TXA2 synthase [3] = target: T2, TXA2 synthase (Homo sapiens, UniProt P24557); test: test (e): in vitro inhibition of human platelet microsomal TXA2 synthase (conversion of [1-^14 C]arachidonic acid to TXB2); assay type: biochemical
T2 construct: using a human platelet microsomal TXA2 synthase preparation; from tissue; host or cells: human platelet microsomes
T2 sequence (P24557 1-533): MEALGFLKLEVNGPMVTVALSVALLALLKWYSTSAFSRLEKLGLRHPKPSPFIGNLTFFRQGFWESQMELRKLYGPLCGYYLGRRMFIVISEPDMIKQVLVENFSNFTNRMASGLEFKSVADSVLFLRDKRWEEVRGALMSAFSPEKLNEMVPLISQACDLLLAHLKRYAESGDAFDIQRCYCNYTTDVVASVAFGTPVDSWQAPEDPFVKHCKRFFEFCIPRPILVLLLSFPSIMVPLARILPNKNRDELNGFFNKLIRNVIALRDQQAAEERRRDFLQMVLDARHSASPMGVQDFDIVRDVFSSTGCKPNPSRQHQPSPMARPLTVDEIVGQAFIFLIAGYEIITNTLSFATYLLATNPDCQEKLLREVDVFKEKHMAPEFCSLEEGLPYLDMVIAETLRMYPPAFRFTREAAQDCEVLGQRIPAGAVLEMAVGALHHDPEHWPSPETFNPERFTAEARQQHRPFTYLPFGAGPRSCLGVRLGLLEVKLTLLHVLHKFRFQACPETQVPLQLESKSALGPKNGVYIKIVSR

## O=C(O)CC/C=C\C[C@@H]1CO[C@H](c2ccccc2Cl)O[C@@H]1c1cccnc1 (relative stereo) [Example 2, 4(Z)-6-[(2,4,5-cis)-2-(2-chlorophenyl)-4-(3-pyridyl)-1,3-dioxan-5-yl]hexenoic acid]
Thromboxane receptor
  Kb: 0.65 µM
[1]
  observable signs of toxicity: without any observable signs of toxicity
TXA2 synthase [2]
  inhibition of TXB2 production: essentially complete inhibition of TXB2 production
TXA2 synthase [3]
  IC50: 0.048 µM
